From patent US11603368B2, “Fused thiophene derivatives and their uses” (ENYO PHARMA, priority 2018, dated 2023)
Structures can show the parent of a compound that is named as a salt.

How the values were obtained:
[1] = target: T1, CISD3 Gene Product (Miner2) (Homo sapiens, UniProt P0C7P0); test: Stability of Fe—S cluster binding of purified NEET protein Miner2; format: biochemical; details: for Time (in minutes) to achieve 50% loss of bound cluster (Absorbance 458 nm), CISD3 Gene Product (Miner2) / Residual cluster bound at end of experiment (Percentage Absorbance 458 nm at time zero), CISD3 Gene Product (DMSO 11%): pH 6, 37° C., 1:3 protein:compound molar ratio; for Time (in minutes) to achieve 50% loss of bound cluster (Absorbance 458 nm), CISD3 Gene Product (Miner2): 6 μM compound, run time 180 minutes, Vehicle Control 60; for Residual cluster bound at end of experiment (Percentage Absorbance 458 nm at time zero), CISD3 Gene Product (DMSO 11%): end of 180 minutes, Vehicle Control 11%; for stabiliser or destabiliser of Fe—S cluster binding, CISD3 Gene Product (Miner2): time to 50% Fe—S cluster bound loss changed by more than 25% vs Control sample, at the concentrations tested
T1 sequence (P0C7P0 15-127): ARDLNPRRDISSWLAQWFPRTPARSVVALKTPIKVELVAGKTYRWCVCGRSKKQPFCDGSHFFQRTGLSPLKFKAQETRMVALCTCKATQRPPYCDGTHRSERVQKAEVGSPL
Protocol: (§1) The modulator effect on the NEET proteins encoded by human CISD1, CISD2, and CISD3 genes by the compounds of the invention has been tested and is reported below. Particularly, the biochemical function of the NEET proteins is measured by the stability of Fe—S cluster binding of the purified NEET proteins.
(§2) The Fe—S cluster binding capacity of NEET proteins is known to be coordinated by four amino-acids in a stretch of 16 (three Cysteine and one Histidine). As the lability of the Fe—S cluster of NEET proteins is sensitive to the environment, cluster stability measurements are one of the measures of interactions of NEET proteins with small molecules and compounds. NEET protein/2Fe-2S cluster stability can be assessed by monitoring the decay in absorbance of its characteristic 458-nm peak (characteristic of the oxidized 2Fe-2S cluster) over time. Each NEET protein (mitoNEET, NAF-1 and Miner 2) was tested for its Fe—S binding in the absence or presence of a compound according to the invention (see table 2 below). The rate of cluster release (time in minutes to achieve 50% loss of bound Fe—S cluster) was compared for each NEET protein in the presence of one of the compounds of the invention (in a 1:3 protein:compound molar ratio) relative to each protein alone.
(§3) At pH 6, all the three NEET proteins (mitoNEET, NAF-1 and Miner 2) have a characteristic rate of loss of the bound Fe—S cluster that can be measured by the decrease of absorbance at wavelength 458 nm over time, using a spectrophotometer. Thus, Bis-Tris buffer (100 mM Bis-Tris pH6, 100 mM Nacl) was used at pH 6 to dilute either DMSO (Blank sample: Bis-Tris Buffer pH 6, 6 μM DMSO), DMSO and one of the three NEET proteins (Control sample: Bis-Tris Buffer pH 6, 6 μM DMSO, 2 μM purified NEET protein) or DMSO, one of the three NEET proteins and a compound of the invention (Test sample: Bis-Tris Buffer pH 6, 6 μM DMSO, […], 6 μM compound of the invention).
(§4) A reaction mix containing DMSO diluted in the Bis-Tris Buffer with or without a compound of the invention was prepared. The purified NEET protein was the last component added to the reaction mix which was then aliquoted into 4 replicates in 96 wells plates. The absorbance at wavelength 458 nm was taken at 5 minutes intervals at 37° C. with a spectrofluorimeter. The assay run time for CISD2 gene product (NAF-1) was 500 minutes and 180 minutes for both the CISD 1 gene product (mitoNEET) and the CISD3 gene product (Miner 2).
(§5) In addition to time monitoring, residual bound Fe—S cluster to NEET protein was measured at the final point of the spectrometry assay for each Test sample and compared to the Control sample data (in parenthesis table 2). This residual binding is measured by the differential percentage between the absorbance 458 nm at time zero and the absorbance 458 nm at the end of the experiment (i.e. respectively 500 or 180 minutes as described hereabove), showing the percentage of NEET protein still able to bind a Fe—S cluster.
(§6) Analysis of the absorbance enables the time for which 50% loss of bound Fe—S cluster is reached (i.e. a 50% absorbance decrease at 458 nm) for each Test sample and each Control sample (in parenthesis table 2) to be determined. The data are then compared to determine whether the compound of the invention stabilizes or destabilizes the NEET protein/Fe—S cluster binding.

[2] = test system: H1N1 (influenza A/New Caledonia/20/99); test: Antiviral effect on A549 cells infected with H1N1; format: cell-based, H1N1 A/New Caledonia/20/99 virus; details: Human A549 cells, MOI of 0.1, 48 h post-infection, MUNANA hydrolysis readout
Protocol: The antiviral effect of the compounds of the invention has been tested on A549 cell lines infected with H1N1 (influenza A/New Caledonia/20/99).
Human A549 cells (80,000 cells/well in a 96 well plate) were treated with a range of concentration of test molecules and immediately infected by H1N1 A/New Caledonia/20/99 virus (clinical isolate) at MOI of 0.1 in DMEM/1% Penicillin/streptomycin supplemented with 0.25 μg/ml TPCK trypsin (Sigma) and incubated at 37° C. in 5% CO2. 48 h post-infection, supernatants (25 μl) were collected and transferred into a 96-well black flat-bottom plate, mixed with 25 μl PBS with Ca++/Mg++(Thermo Fisher) and 50 μl of 2′-(4-Methylumbelliferyl)-α-D-N-acetylneuraminic acid sodium salt hydrate stock-solution (20 μM, MUNANA, Sigma). Plates were incubated 1 h at 37° C. and reaction is stopped by adding 100 μl of Stop Solution (glycine 0.1 M pH10.7/25% ethanol). The amount of fluorescent product released by MUNANA hydrolysis (4-MU) was measured in a Tecan spectrophotometer with excitation and emission wavelengths of 365 and 450 nm respectively.

[3] = target: T2, CISD1 Gene Product (mitoNEET) (Homo sapiens, UniProt Q9NZ45); test: Stability of Fe—S cluster binding of purified NEET protein mitoNEET; format: biochemical; details: for Time (in minutes) to achieve 50% loss of bound cluster (Absorbance 458 nm), CISD1 Gene Product (mitoNEET) / Residual cluster bound at end of experiment (Percentage Absorbance 458 nm at time zero), CISD1 Gene Product (mitoNEET): pH 6, 37° C., 1:3 protein:compound molar ratio; for Time (in minutes) to achieve 50% loss of bound cluster (Absorbance 458 nm), CISD1 Gene Product (mitoNEET): 6 μM compound, run time 180 minutes, Vehicle Control 80; for Residual cluster bound at end of experiment (Percentage Absorbance 458 nm at time zero), CISD1 Gene Product (mitoNEET): end of 180 minutes, Vehicle Control 16%; for stabiliser or destabiliser of Fe—S cluster binding, CISD1 Gene Product (mitoNEET): time to 50% Fe—S cluster bound loss changed by more than 25% vs Control sample, at the concentrations tested
T2 sequence (Q9NZ45 33-108 limits assumed): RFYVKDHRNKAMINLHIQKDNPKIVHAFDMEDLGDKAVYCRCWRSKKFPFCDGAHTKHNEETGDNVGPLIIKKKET
Protocol: as §1, §2, §3, §4, §5, §6

[4] = target: T3, CISD2 Gene Product (NAF-1) (Homo sapiens, UniProt Q8N5K1); test: Stability of Fe—S cluster binding of purified NEET protein NAF-1; format: biochemical; details: for Time (in minutes) to achieve 50% loss of bound cluster (Absorbance 458 nm), CISD2 Gene Product (NAF-1) / Residual cluster bound at end of experiment (Percentage Absorbance 458 nm at time zero), CISD2 Gene Product (NAF-1): pH 6, 37° C., 1:3 protein:compound molar ratio; for Time (in minutes) to achieve 50% loss of bound cluster (Absorbance 458 nm), CISD2 Gene Product (NAF-1): 6 μM compound, run time 500 minutes, Vehicle Control 310; for Residual cluster bound at end of experiment (Percentage Absorbance 458 nm at time zero), CISD2 Gene Product (NAF-1): end of 500 minutes, Vehicle Control 3%; for stabiliser or destabiliser of Fe—S cluster binding, CISD2 Gene Product (NAF-1): time to 50% Fe—S cluster bound loss changed by more than 25% vs Control sample, at the concentrations tested
T3 sequence (Q8N5K1 57-135 limits assumed): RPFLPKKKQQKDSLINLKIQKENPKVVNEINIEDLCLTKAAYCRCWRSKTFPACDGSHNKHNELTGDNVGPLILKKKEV
Protocol: as §1, §2, §3, §4, §5, §6

[5] = Influenza A virus, H1N1, A549, 48 h

SMILES	Time (in minutes) to achieve 50% loss of bound cluster (Absorbance 458 nm), CISD3 Gene Product (Miner2) [1]	Residual cluster bound at end of experiment (Percentage Absorbance 458 nm at time zero), CISD3 Gene Product (DMSO 11%) [1] [%]	Time (in minutes) to achieve 50% loss of bound cluster (Absorbance 458 nm), CISD1 Gene Product (mitoNEET) [3] [min]	Residual cluster bound at end of experiment (Percentage Absorbance 458 nm at time zero), CISD1 Gene Product (mitoNEET) [3] [%]	Time (in minutes) to achieve 50% loss of bound cluster (Absorbance 458 nm), CISD2 Gene Product (NAF-1) [4]	Residual cluster bound at end of experiment (Percentage Absorbance 458 nm at time zero), CISD2 Gene Product (NAF-1) [4] [%]	IC50 [2, 5] [nM]	also measured
O=C(Nc1sc2c(c1C(=O)O)CCC(c1ccccc1)C2)c1ccccc1 (centres unmarked) [#46]	60 min	13	80	18	90 min	14		IC50 [2]: 150 nM; stabiliser or destabiliser of Fe—S cluster binding, CISD2 Gene Product (NAF-1) [4]: destabilisers
O=C(Nc1sc2c(c1C(=O)O)CCN(c1ccccc1)C2)c1ccccc1 [#52]	during 180 minutes	54	100	47	during 500 minutes	50	90	stabiliser or destabiliser of Fe—S cluster binding, CISD3 Gene Product (Miner2) [1]: Stabilisers; stabiliser or destabiliser of Fe—S cluster binding, CISD1 Gene Product (mitoNEET) [3]: stabilisers; stabiliser or destabiliser of Fe—S cluster binding, CISD2 Gene Product (NAF-1) [4]: Stabilisers
COc1ccc(C(=O)Nc2sc3c(c2C(=O)O)CCN(c2ccc(F)cc2C)C3)cc1OC [#54]	85 min	41	105	35	305 min	31	60	stabiliser or destabiliser of Fe—S cluster binding, CISD3 Gene Product (Miner2) [1]: Stabilisers; stabiliser or destabiliser of Fe—S cluster binding, CISD1 Gene Product (mitoNEET) [3]: stabilisers
CC(C)(C)C1CCc2c(sc(NC(=O)c3ccccc3)c2C(=O)O)C1 (centres unmarked) [#71]	70 min	42	100	34	125 min	15		IC50 [2]: 160 nM; stabiliser or destabiliser of Fe—S cluster binding, CISD1 Gene Product (mitoNEET) [3]: stabilisers; stabiliser or destabiliser of Fe—S cluster binding, CISD2 Gene Product (NAF-1) [4]: destabilisers
CC(C)(C)C1CCc2c(sc(NC(=O)c3ccc(OCCCN)cc3)c2C(=O)O)C1 (centres unmarked) [#124, hydrochloride salt]							2700	
CC(C)(C)C1CCc2c(sc(NC(=O)Cc3ccccc3)c2C(=O)O)C1 (centres unmarked) [#125]							2800	
Cc1ccccc1C(=O)Nc1sc2c(c1C(=O)O)CCN(C(=O)OC(C)(C)C)C2 [#126]							2900	
Cc1ccccc1C(=O)Nc1sc2ccccc2c1C(=O)O [#128]							5000	
Cc1ccccc1C(=O)Nc1sc2c(c1C(=O)O)CCN(CC(C)C)C2 [#129, formate salt]							16600	
COC(=O)CCCCCOc1ccc(C(=O)Nc2sc3c(c2C(=O)O)CCC(C(C)(C)C)C3)cc1 (centres unmarked) [#172]							510	
CC1(C)Cc2c(sc(NC(=O)c3ccccc3)c2C(=O)O)C(C)(C)O1 [#175]							740	
COC1CN(c2ccc(C(=O)Nc3sc4c(c3C(=O)O)CCC4)cc2)C1 [#207]							380	
